Data from PubChem BioAssay (NCI).
Where “and” joins values, the source holds several entries; their conditions need not be identical. Equal values may be shown once.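 Where inhibition never reached the appropriate level, the endpoint shown equals the highest concentration tested. Otherwise, values were interpolated linearly from a five-concentration, 48-hour dose response in 96-well plates. GI50: concentration for 50% inhibition of growth. At the TGI there is no net growth.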

Tests used:
Assay in all cases: inhibition of tumour cell growth, NCI panel, 48 h
NCI-H23 lung = system: NCI-H23 lung
NCI-H226 lung = system: NCI-H226 lung
HOP-92 NSCLC = system: HOP-92 NSCLC
U251 CNS = system: U251 CNS
NCI-H522 lung = system: NCI-H522 lung
HCT-116 colon = system: HCT-116 colon
OVCAR-5 ovarian = system: OVCAR-5 ovarian
SNB-19 CNS = system: SNB-19 CNS
SR leukemia = system: SR leukemia
SK-MEL-5 melanoma = system: SK-MEL-5 melanoma

Structure (SMILES) | GI50 (NCI-H23 lung) | TGI (NCI-H23 lung) [µM] | GI50 (NCI-H226 lung) | TGI (NCI-H226 lung) [µM] | GI50 (HOP-92 NSCLC) | TGI (HOP-92 NSCLC) [µM] | GI50 (U251 CNS) | TGI (U251 CNS) [µM] | GI50 (NCI-H522 lung) | TGI (NCI-H522 lung) | GI50 (HCT-116 colon) | TGI (HCT-116 colon) [µM] | GI50 (OVCAR-5 ovarian) | TGI (OVCAR-5 ovarian) [µM] | GI50 (SNB-19 CNS) | TGI (SNB-19 CNS) [µM] | GI50 (SR leukemia) | TGI (SR leukemia) [µM] | GI50 (SK-MEL-5 melanoma) | TGI (SK-MEL-5 melanoma)
COc1ccc(/C=C(/C(=O)n2cnnn2)c2cc(OC)c(OC)c(OC)c2)cc1 | 5.54 µM | > 100 | > 100 µM | > 100 | 6.71 µM | > 100 | 4.22 µM | > 100 | 2.26 µM | 6.67 µM | 3.08 µM | > 100 | 5.78 µM | > 100 | 4.25 µM | > 100 | 0.752 µM | > 100 | 3.12 µM | 29.4 µM
CC(C)(CO)N=Cc1ccccc1[O-].CC(C)(CO)N=Cc1ccccc1[O-].[Co+2] | 72.7 µM | > 100 | 27.9 µM | > 100 | 12.9 µM | 95.7 | 74.9 µM | > 100 | 30.4 µM | 90.5 µM | 69.8 µM | > 100 | > 79.7 µM | > 100 | > 100 µM | > 100 | 14.4 µM | > 90.4 | 42.5 µM | > 100 µM
Nc1ncnc2c1c(-c1ccc(Oc3ccccc3)cc1)nn2C[C@@H]1SSC[C@@H]1O | 0.333 µM | 7.93 | 1.59 µM | 3.92 | 1.62 µM | 6.04 | 0.853 µM | 8.71 | 2.15 µM | 6.98 µM | 0.101 µM | 1.64 | 2.16 µM | 26.2 | 1.03 µM | 14 | 0.0385 µM | 0.27 | 0.25 µM | 0.684 µM
CC[C@H](C)[C@H](NC(=O)[C@H]1CCCCN1C)C(=O)N(C)[C@H](C[C@@H](OC(C)=O)c1nc(C(=O)N[C@@H](Cc2ccccc2)C[C@H](C)C(=O)OC)cs1)C(C)C | 0.00071 µM and 0.0025 µM | > 25 | 0.00234 µM and < 0.0025 µM | < 0.0025 | 0.765 µM | > 25 | 0.000376 µM and 0.0025 µM | > 25 | 0.00028 µM and < 0.0025 µM | 0.0135 µM and < 0.0025 µM | 0.000357 µM |  | 0.000583 µM and 0.0025 µM | > 25 | 0.000431 µM and 0.0025 µM | > 25 |  | 9.59 | 9.09e-05 µM and < 0.0025 µM | 0.00455 µM and < 0.0025 µM
Cn1cnc([N+](=O)[O-])c1Sc1nc(N)nc2nc[nH]c12 | 5.61 µM | > 100 | 7.5 µM | > 100 | 3.1 µM | > 100 | 23 µM | > 100 | 3.56 µM | > 90.5 µM | 2.71 µM | > 100 | 4.48 µM | > 100 | > 100 µM | > 100 | 0.682 µM | > 100 | 3.89 µM | 22.4 µM
C[N+](C)=c1nc(N2CCOCC2)ss1 |  | > 100 |  | > 100 |  | > 100 |  | > 100 |  | > 100 µM |  | > 100 |  | > 100 |  | > 100 |  | > 100 |  | > 100 µM
CN(C)C(=O)SC1=C(c2c(Cl)cccc2Cl)C(=O)c2ccccc21 | 7.14 µM | 19 | 19.9 µM | 59.8 | 1.96 µM | 8.31 | 8.33 µM | 23 | 1.74 µM | 4.05 µM | 1.75 µM | 3.28 | 15.5 µM | 30.8 | 15.8 µM | 29.4 | 3.56 µM | 88.9 | 7.16 µM | 19.2 µM
O=c1oc2ccc(F)cc2c(=O)n1-c1ccc(Br)cc1F | 0.481 µM |  | 1.08 µM | 4.87 | 0.168 µM | 0.528 | 0.786 µM | > 100 | 0.363 µM | 9.38 µM | 0.436 µM | 2.69 | 3.94 µM | > 100 | 0.45 µM | > 80.8 | 0.578 µM | > 100 | 0.267 µM | 0.737 µM
CCc1cccc(CC)c1/C=C/c1cncc(C(=O)NC)c1 | 15.2 µM | > 25 | 17.2 µM | > 25 | 1.27 µM | > 25 | 10.6 µM | > 25 | 8.82 µM | > 23.9 µM | 9.46 µM | > 25 | > 17.6 µM | > 25 | 19.7 µM | > 25 | 7.24 µM | > 25 | 5.71 µM | > 16.2 µM
CC(=O)Oc1ccc(C2(c3ccc(OC(C)=O)cc3)C(=O)Nc3ccccc32)cc1 | 9.3 µM and 19.3 µM | > 100 | > 100 µM | > 100 | 11.8 µM and 16.2 µM | > 79.6 | 33.6 µM and 41.4 µM | > 100 | 3.12 µM and 4.56 µM | > 100 µM | 34.1 µM and 25.8 µM | > 100 | > 70.8 µM | > 100 | 42.9 µM and > 61.1 µM | > 100 | 25.1 µM and 24.2 µM | > 100 | 24.6 µM and 36.1 µM | > 100 µM
c1ccc(NC[Si]23OCCN(CCO2)CCO3)cc1 |  | > 100 |  | > 100 |  | > 100 |  | > 100 |  | > 100 µM |  | > 100 |  | > 100 |  | > 100 |  | > 100 |  | > 100 µM
O=C(CCN1CCCC1)Nc1ccc2c(Nc3ccccc3)c3ccccc3nc2c1 | 0.383 µM | 2 | 1.18 µM | 3.53 | 0.432 µM | 2.26 | 0.429 µM | 2.19 | 1.03 µM | 2.88 µM | 0.611 µM | 2.2 | 1.52 µM | 4.4 | 0.432 µM | 2.92 | 0.0503 µM | 1.45 | 1.38 µM | 2.71 µM
COc1ccccc1/C=C\C(=O)c1ccccc1 | 13.5 µM | 29.4 | 14.5 µM | 29.8 | 11.9 µM | 31.5 | 4.25 µM | 16.8 | 2.39 µM | 7 µM | 3.4 µM | 11.6 | 17.7 µM | 32.5 | 4.38 µM | 16.7 | 2.77 µM | 18 | 5.01 µM | 17 µM
CN(C)C/C=C/C(=O)Nc1ccc(C(=O)N2CCC[C@@H](Nc3ncc(Cl)c(-c4c[nH]c5ccccc45)n3)C2)cc1 | 0.189 µM | 0.783 | 0.365 µM | 3.2 | 0.244 µM | 1.54 | 0.306 µM | 10 | 0.0344 µM | 0.228 µM | 0.154 µM | 10.6 | 0.328 µM | 11.6 | 0.196 µM | 11.1 | 0.0337 µM | 1.03 | 0.231 µM | 0.618 µM
C=CC1=CC(C)C[C@]1(O)C(=O)OC (some centres not stated) | > 100 µM |  | > 100 µM |  | > 100 µM |  | > 100 µM |  |  | > 100 µM | > 100 µM |  | > 100 µM |  | > 100 µM |  |  | > 100 |  | > 100 µM
Cn1cc(CO)c2ccccc21 | 48.2 µM | > 100 | 64.1 µM | > 100 | 33.9 µM | > 100 | 40.3 µM | > 100 | 23.4 µM | > 100 µM | 26.9 µM | > 100 | > 100 µM | > 100 | > 100 µM | > 100 | 17.9 µM | > 100 | 48.6 µM | > 100 µM
